Experiment [1] concerns PC-3 cells. Nature of the experiment: In vitro GRPR specificity assay (uptake with or without NOTA-PEG2-RM26 block). The class given is cell-based, human. As to conditions: 1 nM radiopeptide, 1 h at 37 °C, block with 1 µM NOTA-PEG2-RM26, n = 3. The method, then: After discarding the medium, the cells were washed with cold (4 °C) phosphate-buffered saline containing 1% w/v bovine serum albumin (PBS/BSA). The radiopeptides (Cf = 1 nM in 1 mL PBS/BSA) were added to all wells. A subset of wells was also treated with an excess of unlabeled GRPR-binding peptide NOTA-PEG2-RM26 (Bjäreback et al. [2025]) (Cf = 1 µM in 1 mL PBS/BSA) to block GRPR. After incubation for 1 h at 37 °C, the supernatant was removed, and the cells were washed and then collected by treating them with 1 M NaOH. The activity of the collected samples was measured with the gamma counter. This assay was performed in triplicate for each radiopeptide.

For experiment [2], the target named is T1, GRPR (Homo sapiens, UniProt P30550).
T1 construct: 3 × 10^6 PC-3 cells were seeded in 100 mm Petri dishes; host or cells: PC-3 human prostate cancer cells
More on the design: method as in PMID 19480415. As to conditions: LigandTracer, PC-3 cells, previously published data, cited from earlier work.

T1 sequence (P30550 whole entry): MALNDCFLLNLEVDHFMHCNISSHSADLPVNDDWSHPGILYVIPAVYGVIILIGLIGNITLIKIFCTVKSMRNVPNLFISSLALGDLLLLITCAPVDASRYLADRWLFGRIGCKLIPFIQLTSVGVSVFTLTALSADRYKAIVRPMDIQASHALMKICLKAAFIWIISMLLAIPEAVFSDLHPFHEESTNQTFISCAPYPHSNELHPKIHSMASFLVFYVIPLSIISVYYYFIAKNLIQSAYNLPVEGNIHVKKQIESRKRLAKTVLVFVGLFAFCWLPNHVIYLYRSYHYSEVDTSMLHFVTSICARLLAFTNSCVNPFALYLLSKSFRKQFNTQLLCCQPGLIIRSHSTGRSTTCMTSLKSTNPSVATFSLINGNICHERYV

Turning to `CC(C)C[C@H](NC(=O)C[C@H](O)[C@H](CC(C)C)NC(=O)[C@H](Cc1c[nH]cn1)NC(=O)CN(C)C(=O)[C@@H](NC(=O)[C@H](C)NC(=O)[C@H](Cc1c[nH]c2ccccc12)NC(=O)[C@H](CCC(N)=O)NC(=O)[C@@H](Cc1ccccc1)NC(=O)CN1CCC(NC(=O)COCCOCCNC(=O)CN2CCN(CC(=O)O)CCN(CC(=O)O)CCN(CC(=O)O)CC2)CC1)C(C)C)C(N)=O` [[^177Lu]Lu-PKB1, metal not drawn], in experiment [1], the “in vitro binding specificity” value is “GRPR-mediated activity uptake”.

As for “DOTAGA-PEG2-Pip-[Sar^11]RM26 [[^177Lu]Lu-AU-RM26-M2] [parent compound, AU-RM26-M2 (DOTAGA-PEG2-Pip-[Sar^11]RM26) labeled with Lu-177, previously reported by the authors]”, in experiment [2] (1 and 5 nM), the ka1 was 184000 M⁻¹ s⁻¹, the ka2 is 1.08e+06 M⁻¹ s⁻¹, the kd1 is recorded as 3.53 × 10^–5 1/s and the kd2 is reported as 5.94 × 10^–2 1/s. The “Bmax1 / Bmax2” value in experiment [2] was 0.16.

(Values after paper PMC12615863, “Improving GRPR-targeting peptides for radiotheranostics application: insights from chelator modifications and α-methyl-L tryptophan substitution” (EJNMMI Radiopharmacy and Chemistry, 2025).)
